How the values were obtained:
SH-SY5Y [1] = test: Neuroprotective activity against H2O2-induced human SH-SY5Y cell damage assessed as increase in cell viability at 1 uM pretreated 2 hrs before H2O2 challenge relative to control; format: functional
SH-SY5Y [2] = test: Neuroprotective activity against H2O2-induced human SH-SY5Y cell damage assessed as increase in cell viability at 10 uM pretreated 2 hrs before H2O2 challenge relative to control; format: functional

| Compound | Activity (SH-SY5Y [1]) [%] | Activity (SH-SY5Y [2]) [%] |
| --- | --- | --- |
| C[C@]12COC(=O)C[C@@]3(CC(=O)[C@]1(C)O)[C@]2(O)CC[C@]3(C)O | 2.76 |  |
| COc1ccc([C@@H](O)[C@H](C)O)cc1 (relative stereo) [ERYTHRO ANETHOLE GLYCOL] |  | 7.29 |
| C[C@@]12COC(=O)[C@]1(C)[C@@H](O)[C@]13CC(=O)O[C@@]1(C)CC[C@]23O [ANISLACTONE B] | 12.55 |  |
| COc1ccc([C@@H]2O[C@@H]3[C@@H](O[C@H]2C)O[C@H](CO)[C@@H](O)[C@@H]3O)cc1 [OLIGANDRUMIN E] |  | 6.42 |
| C[C@@H]1[C@H](O)C[C@]23OC(=O)C[C@]12C[C@]1(O)OC[C@]3(C)[C@@H]1C [PSEUDOMAJUCIN] |  | 2.83 |
| VITAMIN E |  | 7.16 |

Reference: ChEMBL document CHEMBL1151974, “Sesquiterpenoids and phenylpropanoids from pericarps of Illicium oligandrum” (2009)
